Laboratory results taken from publication PMC9025555, “Chiral Recognition R- and RS- of New Antifungal: Complexation/Solubilization/Dissolution Thermodynamics and Permeability Assay” (Pharmaceutics, 2022).

Experiment: Thermodynamics of complexation, solubilization and inherent dissolution (mole fraction scale)
Format: physicochemical
Details: for Gibbs free energy of transfer from pure buffer pH 2.0 to CD solution: Eq. (10)
Method: The Gibbs energy change of the inherent (in pure aqueous buffer without CD) dissolution ( ΔGinh/sol0,X ) in mole fraction scale was derived from the compound mole fraction solubility ( X20 ) in the following way:(8) ΔGinh/sol0,X=−RTlnX20
The standard solution enthalpies ΔHinh/sol0,X and entropies ΔSinh/sol0,X were calculated using a linear dependence between lnX20 and 1/T and van’t Hoff equation:(9) lnX20=−ΔHinh/sol0,X/RT+ΔSinh/sol0,X/R
The free energy of transferring a compound from the aqueous buffer solution to the CD solution of a certain CD concentration ( CCD ) (corresponds to solubilization process) was calculated by Equation (10):(10) ΔGslbz0,X(CCD)=−RTlnX2/X20, where X20 is the inherent solubility of the drug in mole fraction in the absence of CD at temperature T, and X2 is the total solubility in the presence of CD at the same temperature, R is the universal gas constant. The solubilization enthalpy ( ΔHslbz0,X(CCD) ) and entropy ( TΔSslbz0,X(CCD) ) were derived as follows:(11) ΔHslbz0,X(CCD)=ΔHsol0,X(CCD)−ΔHsol0,X (12) TΔSslbz0,X(CCD)=TΔSsol0,X(CCD)−TΔSsol0,X where ΔHsol0,X and ΔSsol0,X are the enthalpy and entropy of solubility process of the investigated compounds in the absence of CD, whereas ΔHsol0,X(CCD) and ΔSsol0,X(CCD) are the enthalpy and entropy of solubility process in the presence of CD with concentration CCD .
In order to determine the thermodynamic parameters of the complex formation for the compounds with CD, the stability constants ( KCX , mole fraction scale) at different temperatures were obtained using the phase diagrams and mole fractions ( X20 ) (analogously to Equation (3) by the following equation:(13) KCX=slope/X20⋅(1−slope),
Respectively, the Gibbs energy of the complexation in mole fraction scale ( ΔGC0,X ) was derived from the stability constants ( KCX ) in the following way:(14) ΔGC0,X=−RTlnKCX
The thermodynamic parameters of the complexation, i.e., the standard enthalpy change ( ΔHC0,X ) and the standard entropy change ( ΔSC0,X ) were calculated with the help of the integral form of the van’t Hoff’s equation:(15) lnKCX=−ΔHC0,X/RT+ΔSC0,X/R where a plot of lnKCX versus 1/T produces Slope = −ΔHC0,X/R and intercept equal to ΔSC0,X/R .
In order to understand the contribution of the hydrophobic effect (desolvation) to the complexation process on a relative scale, the approach disclosing the correlation of the free energy of complex formation with the free energy of the substance solubility in the same buffer solution proposed by Al Omari et al. was applied. To this end, the Gibbs energy of complex formation ( ΔGCT,X ) and inherent dissolution ( ΔGinh/solT,X ) in mole fraction scale were used. A linear correlation between ΔGCT,X and ΔGsolT,X results in Equation (16):(16) ΔGCT,X=a⋅ΔGinh/solT,X+b where the slope (a) is the magnitude of the hydrophobic effect, and the intercept (b) is the structural factor. […]

[1] = buffer pH 2.0, 298.15 K, mole fraction scale
[2] = buffer pH 2.0 without CD, 298.15 K, mole fraction scale

O=C1S/C(=C\c2ccc(Cl)cc2)C(=O)N1CC(O)CN1CCN(CC(O)(Cn2cncn2)c2ccc(F)cc2F)CC1 (stereo not shown) [RS-186, (Z)-5-(4-chlorobenzylidene)-3-(3-(4-(2-(2,4-difluorophenyl)-2-hydroxy-3-(1H-1,2,4-triazol-1-yl)propyl)piperazin-1-yl)-2-hydroxypropyl)thiazolidine-2,4-dione]
Gibbs free energy of transfer from pure buffer pH 2.0 to CD solution (CCD 0.01, 298.15 K): -4.73 | Gibbs free energy of transfer from pure buffer pH 2.0 to CD solution (CCD 0.01, 303.15 K): -4.83 | Gibbs free energy of transfer from pure buffer pH 2.0 to CD solution (CCD 0.01, 310.15 K): -5.12 | Gibbs free energy of transfer from pure buffer pH 2.0 to CD solution (CCD 0.01, 313.15 K): -5.43 | Gibbs free energy of transfer from pure buffer pH 2.0 to CD solution (CCD 0.03, 298.15 K): -6.90 | Gibbs free energy of transfer from pure buffer pH 2.0 to CD solution (CCD 0.03, 303.15 K): -7.10 | Gibbs free energy of transfer from pure buffer pH 2.0 to CD solution (CCD 0.03, 310.15 K): -7.36 | Gibbs free energy of transfer from pure buffer pH 2.0 to CD solution (CCD 0.03, 313.15 K): -7.66 | Gibbs free energy of transfer from pure buffer pH 2.0 to CD solution (CCD 0.04, 298.15 K): -7.64 | Gibbs free energy of transfer from pure buffer pH 2.0 to CD solution (CCD 0.04, 303.15 K): -7.84 | Gibbs free energy of transfer from pure buffer pH 2.0 to CD solution (CCD 0.04, 310.15 K): -8.15 | Gibbs free energy of transfer from pure buffer pH 2.0 to CD solution (CCD 0.04, 313.15 K): -8.52 | Gibbs free energy of transfer from pure buffer pH 2.0 to CD solution (CCD 0.05, 298.15 K): -8.22 | Gibbs free energy of transfer from pure buffer pH 2.0 to CD solution (CCD 0.05, 303.15 K): -8.43 | Gibbs free energy of transfer from pure buffer pH 2.0 to CD solution (CCD 0.05, 310.15 K): -8.75 | Gibbs free energy of transfer from pure buffer pH 2.0 to CD solution (CCD 0.05, 313.15 K): -9.06 | slope (a) of ΔGC versus ΔGsol correlation, magnitude of the hydrophobic effect (Equation (16), pH 2.0, mole fraction scale): −0.611 | solubilization: change of the standard Gibbs energy (ΔGslbz0,X) (buffer pH 2.0, 298.15 K, calculated at maximal 0.05 M CD concentration): -1.96 kcal/mol | change of the standard Gibbs energy of inclusion complex formation (ΔGC0,X) [1]: -3.7 kcal/mol | enthalpy of inclusion complex formation (ΔHC0,X) [1]: -2.22 ± 0.311 kcal/mol | entropy of inclusion complex formation (TΔSC0,X) [1]: 1.48 ± 0.22 kcal/mol | solubilization entropy (TΔSslbz0,X) [1]: 3.59 ± 0.789 kcal/mol | inherent solubility Gibbs energy (ΔGinh/sol0,X) [2]: 7.17 kcal/mol | inherent solubility enthalpy (ΔHinh/sol0,X) [2]: 4.54 ± 0.526 kcal/mol | inherent solubility entropy (TΔSinh/sol0,X) [2]: -2.63 ± 0.359 kcal/mol | ratio |ΔHC0,X| > |TΔSC0,X| (complexation, pH 2.0, 298.15 K): about 1.5 fold | Complexation constant (KCX) (mole fraction scale, buffer pH 2.0, 298.15 K): 525.2 ± 52.9 | contribution of the hydrophobic interactions to the driving force for complex stability (pH 2.0): ~61%
